System: Rattus norvegicus
Conditions: oral, gavage
[1] = developmental, duration: 14 days, M/F, Crl:CD(SD), generation: F1, F1: Pelvis: Pelvis, Ischium Incompletely Ossified + F1: Pelvis: Pelvis, Pubis Incompletely Ossified + F1: Skull: Interparietal, Incomplete …
[2] = developmental, duration: 14 days, M/F, Crl:CD(SD), generation: F1, F1: Skull: Supraoccipital, Incomplete Ossification
[3] = developmental, duration: 14 days, M/F, Sprague-Dawley, generation: F1, F1: Developmental: Pelvic Girdle: Ischium, Incomplete Ossification + F1: Developmental: Pelvic Girdle: Pubis, Incomplete Ossification + F1: …
[4] = developmental, duration: 14 days, M/F, Sprague-Dawley, generation: F1, F1: Developmental: Pelvis: Pelvis, Ischium Incompletely Ossified + F1: Developmental: Pelvis: Pelvis, Pubis Incompletely Ossified + F1: …
[5] = developmental, duration: 14 days, M/F, Sprague-Dawley, generation: F1, F1: Pelvic Girdle: Ischium, Incomplete Ossification + F1: Pelvic Girdle: Pubis, Incomplete Ossification + F1: Rib: Rib, Thick + F1: Rib: Rib…
[6] = developmental, M/F, Sprague-Dawley, generation: F1, F1: Developmental: Whole Body: Lactation Index + F1: Developmental: Whole Body: Live Pups Born + F1: Developmental: Whole Body: No. of Pups …
[7] = reproduction developmental, duration: 14 days, F, Crl:CD(SD), generation: P0, P0: Developmental: Uterus: Implantation + P0: General Toxicity: Whole Body: Necropsy Appeared Normal + P0: Reproductive: Ovary: Corpora …
[8] = reproduction developmental, duration: 14 days, F, Crl:CD(SD), generation: P0, P0: Developmental: Uterus: Implantation + P0: Reproductive: Whole Body: Length of Gestation
[9] = reproduction developmental, duration: 14 days, F, Crl:CD(SD), generation: P0, P0: Whole Body: Clinical Observations + P0: Whole Body: Maternal Body Weight + P0: Whole Body: Maternal Body Weight Change + P0: Whole Body…
[10] = reproduction developmental, duration: 14 days, F, Crl:CD(SD), generation: P0, P0: Whole Body: Maternal Body Weight Change, Corrected
[11] = reproduction developmental, duration: 14 days, F, Sprague-Dawley, generation: P0, P0: Developmental: Uterus: Implantation + P0: Developmental: Uterus: Resorptions, Early + P0: Developmental: Uterus: Resorptions, Late + P0…
[12] = reproduction developmental, duration: 14 days, F, Sprague-Dawley, generation: P0, P0: Whole Body: Maternal Body Weight + P0: Whole Body: Maternal Body Weight Change + P0: Whole Body: Maternal Body Weight, Corrected
[13] = reproduction developmental, duration: 14 days, M/F, Crl:CD(SD), generation: F1, F1: Whole Body: Pup Weight + F1: Whole Body: Viability Index
[14] = reproduction developmental, duration: 70 days, F, Crl:CD(SD), generation: P0, P0: Uterus: Uterus (With Cervix) Weight, Absolute + P0: Whole Body: Clinical Observations + P0: Whole Body: Maternal Food Consumption, …
[15] = reproduction developmental, duration: 70 days, F, Crl:CD(SD), generation: P0, P0: Uterus: Uterus (With Cervix) Weight, Relative + P0: Whole Body: Maternal Body Weight Change + P0: Whole Body: Mortality + P0: Whole Body…
[16] = reproduction developmental, duration: 70 days, M/F, Crl:CD(SD), generation: F1, F1: Whole Body: Clinical Observations + F1: Whole Body: Lactation Index + F1: Whole Body: Pup Mortality + F1: Whole Body: Pup Weight …
[17] = reproduction developmental, duration: 70 days, M/F, Crl:CD(SD), generation: F1, F1: Whole Body: Pup Mortality + F1: Whole Body: Pup Weight Relative to Litter
[18] = reproduction developmental, duration: 70 days, M, Crl:CD(SD), generation: P0, P0: Whole Body: Clinical Observations + P0: Whole Body: Mortality

**Q.** How did the NOAEL (developmental, duration: 14 days, M/F, Crl:CD(SD), generation: F1, F1: Developmental: Bone: Skeletal Malformation + F1: Developmental: Whole Body: Nursing Behavior + F1: Developmental: Whole Body: Pup Weight…) turn out when `OCCC(F)(F)C(F)(F)C(F)(F)C(F)(F)C(F)(F)C(F)(F)F` [2-(Perfluorohexyl)ethanol] was run?
**A.** 75 mg/kg-day

**Q.** And the LEL [1]?
**A.** 250 mg/kg-day

**Q.** And the NEL [1]?
**A.** 125 mg/kg-day

**Q.** What about the NEL (developmental, duration: 14 days, M/F, Crl:CD(SD), generation: F1, F1: Skull: Frontal, Incomplete Ossification + F1: Skull: Zygomatic Arch, Incomplete Ossification + F1: Uterus: Fetuses, Dead + F1: Uterus: …) of the same molecule?
**A.** 250 mg/kg-day

**Q.** And the LEL [2]?
**A.** 125 mg/kg-day

**Q.** And the NEL [2]?
**A.** 25 mg/kg-day

**Q.** And the LOAEL [3]?
**A.** 125 mg/kg-day

**Q.** What about the NOAEL [3] of the same molecule?
**A.** 25 mg/kg-day

**Q.** And the LOAEL [4]?
**A.** 125 mg/kg-day

**Q.** And the NOAEL [4]?
**A.** 25 mg/kg-day

**Q.** And the LEL [5]?
**A.** 250 mg/kg-day

**Q.** And the NEL [5]?
**A.** 125 mg/kg-day

**Q.** What about the LOAEL [6] of the same molecule?
**A.** 125 mg/kg-day

**Q.** What about the NOAEL [6] of the same molecule?
**A.** 25 mg/kg-day

**Q.** What about the LOAEL [7] of the same molecule?
**A.** 225 mg/kg-day

**Q.** And the NOAEL [7]?
**A.** 75 mg/kg-day

**Q.** And the LOAEL [8]?
**A.** 225 mg/kg-day

**Q.** What about the NOAEL [8] of the same molecule?
**A.** 75 mg/kg-day

**Q.** What about the NEL (reproduction developmental, duration: 14 days, F, Crl:CD(SD), generation: P0, P0: Ovary: Corpora Lutea + P0: Uterus: Implantation + P0: Uterus: Resorptions, Early + P0: Uterus: Resorptions, Late + P0: Uterus: …) of the same molecule?
**A.** 250 mg/kg-day

**Q.** And the NEL (reproduction developmental, duration: 14 days, F, Crl:CD(SD), generation: P0, P0: Ovary: Corpora Lutea + P0: Uterus: Implantation + P0: Whole Body: Length of Gestation + P0: Whole Body: Necropsy Appeared Normal + P0: …)?
**A.** 225 mg/kg-day

**Q.** And the NOAEL (reproduction developmental, duration: 14 days, F, Crl:CD(SD), generation: P0, P0: Reproductive: Ovary: Corpora Lutea + P0: Reproductive: Whole Body: Reproductive Performance)?
**A.** 225 mg/kg-day

**Q.** What about the LEL [9] of the same molecule?
**A.** 250 mg/kg-day

**Q.** And the NEL [9]?
**A.** 125 mg/kg-day

**Q.** And the LEL [10]?
**A.** 125 mg/kg-day

**Q.** And the NEL [10]?
**A.** 25 mg/kg-day

**Q.** What about the LOAEL [11] of the same molecule?
**A.** 125 mg/kg-day

**Q.** What about the NOAEL [11] of the same molecule?
**A.** 25 mg/kg-day

**Q.** What about the NEL (reproduction developmental, duration: 14 days, F, Sprague-Dawley, generation: P0, P0: Macroscopic Observations + P0: Ovary: Corpora Lutea + P0: Uterus: Implantation + P0: Uterus: Resorptions, Early + P0: Uterus: …) of the same molecule?
**A.** 250 mg/kg-day

**Q.** What about the NOAEL (reproduction developmental, duration: 14 days, F, Sprague-Dawley, generation: P0, P0: Reproductive: Ovary: Corpora Lutea + P0: Reproductive: Uterus: Uterine Weight, Gravid) of the same molecule?
**A.** 250 mg/kg-day

**Q.** What about the LEL [12] of the same molecule?
**A.** 250 mg/kg-day

**Q.** What about the NEL [12] of the same molecule?
**A.** 125 mg/kg-day

**Q.** What about the NEL (reproduction developmental, duration: 14 days, M/F, Crl:CD(SD), generation: F1, F1: Whole Body: Nursing Behavior + F1: Whole Body: Skeletal Malformation) of the same molecule?
**A.** 225 mg/kg-day

**Q.** And the LEL [13]?
**A.** 225 mg/kg-day

**Q.** And the NEL [13]?
**A.** 75 mg/kg-day

**Q.** And the NEL (reproduction developmental, duration: 34 days, M, Crl:CD(SD), generation: P0, P0: Central Nervous System: Latency to mount + P0: Whole Body: Necropsy Appeared Normal)?
**A.** 225 mg/kg-day

**Q.** What about the NEL (reproduction developmental, duration: 70 days, F, Crl:CD(SD), generation: P0, P0: Lung: Lung Histopathology + P0: Mammary Gland: Mammary Gland Histopathology + P0: Ovaries: Ovary Histopathology + P0: Ovary: Ovary …) of the same molecule?
**A.** 250 mg/kg-day

**Q.** And the LEL [14]?
**A.** 125 mg/kg-day

**Q.** And the NEL [14]?
**A.** 25 mg/kg-day

**Q.** What about the LEL [15] of the same molecule?
**A.** 250 mg/kg-day

**Q.** What about the NEL [15] of the same molecule?
**A.** 125 mg/kg-day

**Q.** What about the LEL [16] of the same molecule?
**A.** 250 mg/kg-day

**Q.** What about the NEL [16] of the same molecule?
**A.** 125 mg/kg-day

**Q.** And the NEL (reproduction developmental, duration: 70 days, M/F, Crl:CD(SD), generation: F1, F1: Whole Body: Live Pups Born + F1: Whole Body: Mean Pups Delivered + F1: Whole Body: Pup Mortality)?
**A.** 250 mg/kg-day

**Q.** What about the LEL [17] of the same molecule?
**A.** 125 mg/kg-day

**Q.** And the NEL [17]?
**A.** 25 mg/kg-day

**Q.** And the NEL (reproduction developmental, duration: 70 days, M, Crl:CD(SD), generation: P0, P0: Epididymides: Epididymides Histopathology + P0: Epididymis: Epididymis Weight, Left, Absolute + P0: Epididymis: Epididymis Weight, Left…)?
**A.** 250 mg/kg-day

**Q.** What about the LEL [18] of the same molecule?
**A.** 125 mg/kg-day

**Q.** And the NEL [18]?
**A.** 25 mg/kg-day

Reference: EPA's ToxValDB 9.5
